Test system: Puccinia recondita
Assay: Protective activity against Puccinia recondita on wheat (brown rust of wheat) (Puccrt P1)
Assay type: in vivo, Puccinia recondita on wheat seedlings cultivar "Kanzler"
Conditions: single active compound, protective spray 1 day before inoculation, efficacy in % of untreated control (Abbot), read-out: Observed activity (%)
Protocol: The active compounds, separately or jointly, were prepared as a stock solution comprising 25 mg of active compound which was made up to 10 ml using a mixture of acetone and/or dimethyl sulfoxide and the emulsifier Uniperol® EL (wetting agent having an emulsifying and dispersing action based on ethoxylated alkylphenols) in a ratio by volume of solvent/emulsifier of 99:1. The mixture was then made up to 100 ml with water. This stock solution was diluted with the solvent/emulsifier/water mixture described to give the concentration of active compound stated below.
The visually determined percentages of infected leaf areas were converted into efficacies in % of the untreated control:
The efficacy (E) is calculated as follows using Abbot's formula. W=(1−α/β)·100 α corresponds to the fungicidal infection of the treated plants in % and β corresponds to the fungicidal infection of the untreated (control) plants in %
At an efficacy of 0, the infection level of the treated plants corresponds to that of the untreated control plants; at an efficacy of 100, the treated plants are not infected.
The expected efficacies of active compound mixtures were determined using Colby's formula (S. R. Colby, “Calculating synergistic and antagonistic responses of herbicide combinations”, Weeds 15, 20-22 (1967)) and compared with the observed efficacies.
Colby's formula: E=x+y−x−y/100 • E expected efficacy, expressed in % of the untreated control, when using the mixture of the active compounds A and B at the concentrations a and b; • x efficacy, expressed in % of the untreated control, when using the active compound A at the concentration a; • y efficacy, expressed in % of the untreated control, when using the active compound B at the concentration b;
Leaves of potted wheat seedlings of the cultivar “Kanzler” were sprayed to runoff point with an aqueous suspension having the concentration of active compound stated below. […] The extent of the rust fungus development on the leaves was then determined visually.

SMILES	inhibition at 8 ppm (8 ppm)	inhibition at 2 ppm (2 ppm)	inhibition at 4 ppm (4 ppm)
O=C(Nc1ccccc1-c1ccc(Cl)cc1)c1cccnc1Cl [Boscalid, boscalid]	22%	–	–
Cc1cc(C)nc(Nc2ccccc2)n1 [Pyrimethanil, pyrimethanil]	–	0%	0%

— US7923452B2, “Fungicidal mixtures comprising boscalid and pyrimethanil” (BASF SE, priority 2005, dated 2011)
